Structures can show the parent of a compound that is named as a salt. Where two headings read alike, the source gives them in different places.
Assays:
[1] = Chen et al.; cited from earlier work
healthy subjects [2] = test: Phase 1 single ascending dose trial of intravenous HBI-3000: continuous 12-lead Holter ECG, baseline and placebo subtracted (ΔΔ) ECG intervals at Cmax; assay type: in vivo, human
Procedure: (§1) HBI-3000 (sulcardine sulfate) was administered to human subjects according to the protocol provided in (Clinical Trials.gov Identifier: NCT03397641. That protocol is incorporated herein by reference in its entirety.
(§2) Objective: Provided herein are the safety, tolerability, pharmacokinetics and electrocardiogram (ECG) results of a Phase 1 single ascending dose trial of intravenous (IV) HBI-3000 in healthy subjects.
(§3) Methods: […] subjects were randomized to 6 cohorts of 8 subjects to receive 1 of 5 single ascending iv doses (Table 2) of HBI-3000 or placebo (6:2), with 2 cohorts receiving the 600 mg dose. Doses of HBI-3000 ranged from 20 mg (Cohort A), 60 mg (Cohort B), 180 mg (Cohort C), 360 mg (Cohort D), to 600 mg (Cohort E and F). Drug was a lyophilized powder, reconstituted to […] then diluted in saline for delivery via intravenous infusion as a 50 mL solution over 30 minutes.
Continuous 12-lead Holter ECG data were recorded at baseline and 11 time points thereafter. Mean baseline and placebo subtracted (ΔΔ) ECG intervals (QTcF, HR, PR, QRS, and P-wave duration [PDur]) and T-wave segments (J to T peak [JTp] and T peak to T end [TpTe]) were calculated at Cmax for each dose.
Table 2 summarizes ECG data at Cmax for each dose, as predicted by mixed-effects modeling. […] The increases in QRS and PDur are consistent with block of INa-Peak. The increase in the PR interval is consistent with the increase in PDur and with both INa-Peak and ICa,L inhibition. Prolongation of TpTe is consistent with IKr block, which would be expected, in isolation, to lengthen JTp as well. The observed dose-related reduction of JTp is likely due to counteraction of the effect of HBI-3000 on IKr through its inhibition of both INa-Late, and ICa,L.

[3] = Phase 1 single ascending dose trial of intravenous HBI-3000: pharmacokinetics; assay type: in vivo; conditions: human, plasma
Procedure: as §1, §2, §3
In some instances, the patient is administered 350 mg of HBI-3000.

healthy subjects [4] = test: Phase 1 single ascending dose trial of intravenous HBI-3000: safety and tolerability; assay type: in vivo, human; conditions: single ascending iv doses 20-600 mg
Procedure: as §1, §2, §3

INa-Peak = INa-Peak (Homo sapiens, UniProt Q14524); conditions: background statement; cited from earlier work
INa-Late = INa-Late (Homo sapiens, UniProt Q14524); conditions: background statement; cited from earlier work
ICa,L = ICa,L (Homo sapiens, UniProt Q13936); conditions: background statement; cited from earlier work
IKr = IKr (Homo sapiens, UniProt Q12809); conditions: background statement; cited from earlier work
[5] = 20 mg single iv infusion over 30 min, at Cmax 135 ng/ml, N=6, concentration-effect regression model
[6] = 60 mg single iv infusion over 30 min, at Cmax 378 ng/ml, N=6, concentration-effect regression model
[7] = 180 mg single iv infusion over 30 min, at Cmax 1530 ng/ml, N=6, concentration-effect regression model
[8] = 360 mg single iv infusion over 30 min, at Cmax 3120 ng/ml, N=5, concentration-effect regression model
[9] = 600 mg single iv infusion over 30 min, at Cmax 5280 ng/ml, N=12, concentration-effect regression model
[10] = concentration-effect regression model, iv doses 20-600 mg
[11] = 20 mg single iv infusion over 30 min, healthy subjects, N=6
[12] = 60 mg single iv infusion over 30 min, healthy subjects, N=6
[13] = 180 mg single iv infusion over 30 min, healthy subjects, N=6
[14] = 360 mg single iv infusion over 30 min, healthy subjects, N=5
[15] = 600 mg single iv infusion over 30 min, healthy subjects, N=12

Chain of INa-Peak (Q14524 whole entry): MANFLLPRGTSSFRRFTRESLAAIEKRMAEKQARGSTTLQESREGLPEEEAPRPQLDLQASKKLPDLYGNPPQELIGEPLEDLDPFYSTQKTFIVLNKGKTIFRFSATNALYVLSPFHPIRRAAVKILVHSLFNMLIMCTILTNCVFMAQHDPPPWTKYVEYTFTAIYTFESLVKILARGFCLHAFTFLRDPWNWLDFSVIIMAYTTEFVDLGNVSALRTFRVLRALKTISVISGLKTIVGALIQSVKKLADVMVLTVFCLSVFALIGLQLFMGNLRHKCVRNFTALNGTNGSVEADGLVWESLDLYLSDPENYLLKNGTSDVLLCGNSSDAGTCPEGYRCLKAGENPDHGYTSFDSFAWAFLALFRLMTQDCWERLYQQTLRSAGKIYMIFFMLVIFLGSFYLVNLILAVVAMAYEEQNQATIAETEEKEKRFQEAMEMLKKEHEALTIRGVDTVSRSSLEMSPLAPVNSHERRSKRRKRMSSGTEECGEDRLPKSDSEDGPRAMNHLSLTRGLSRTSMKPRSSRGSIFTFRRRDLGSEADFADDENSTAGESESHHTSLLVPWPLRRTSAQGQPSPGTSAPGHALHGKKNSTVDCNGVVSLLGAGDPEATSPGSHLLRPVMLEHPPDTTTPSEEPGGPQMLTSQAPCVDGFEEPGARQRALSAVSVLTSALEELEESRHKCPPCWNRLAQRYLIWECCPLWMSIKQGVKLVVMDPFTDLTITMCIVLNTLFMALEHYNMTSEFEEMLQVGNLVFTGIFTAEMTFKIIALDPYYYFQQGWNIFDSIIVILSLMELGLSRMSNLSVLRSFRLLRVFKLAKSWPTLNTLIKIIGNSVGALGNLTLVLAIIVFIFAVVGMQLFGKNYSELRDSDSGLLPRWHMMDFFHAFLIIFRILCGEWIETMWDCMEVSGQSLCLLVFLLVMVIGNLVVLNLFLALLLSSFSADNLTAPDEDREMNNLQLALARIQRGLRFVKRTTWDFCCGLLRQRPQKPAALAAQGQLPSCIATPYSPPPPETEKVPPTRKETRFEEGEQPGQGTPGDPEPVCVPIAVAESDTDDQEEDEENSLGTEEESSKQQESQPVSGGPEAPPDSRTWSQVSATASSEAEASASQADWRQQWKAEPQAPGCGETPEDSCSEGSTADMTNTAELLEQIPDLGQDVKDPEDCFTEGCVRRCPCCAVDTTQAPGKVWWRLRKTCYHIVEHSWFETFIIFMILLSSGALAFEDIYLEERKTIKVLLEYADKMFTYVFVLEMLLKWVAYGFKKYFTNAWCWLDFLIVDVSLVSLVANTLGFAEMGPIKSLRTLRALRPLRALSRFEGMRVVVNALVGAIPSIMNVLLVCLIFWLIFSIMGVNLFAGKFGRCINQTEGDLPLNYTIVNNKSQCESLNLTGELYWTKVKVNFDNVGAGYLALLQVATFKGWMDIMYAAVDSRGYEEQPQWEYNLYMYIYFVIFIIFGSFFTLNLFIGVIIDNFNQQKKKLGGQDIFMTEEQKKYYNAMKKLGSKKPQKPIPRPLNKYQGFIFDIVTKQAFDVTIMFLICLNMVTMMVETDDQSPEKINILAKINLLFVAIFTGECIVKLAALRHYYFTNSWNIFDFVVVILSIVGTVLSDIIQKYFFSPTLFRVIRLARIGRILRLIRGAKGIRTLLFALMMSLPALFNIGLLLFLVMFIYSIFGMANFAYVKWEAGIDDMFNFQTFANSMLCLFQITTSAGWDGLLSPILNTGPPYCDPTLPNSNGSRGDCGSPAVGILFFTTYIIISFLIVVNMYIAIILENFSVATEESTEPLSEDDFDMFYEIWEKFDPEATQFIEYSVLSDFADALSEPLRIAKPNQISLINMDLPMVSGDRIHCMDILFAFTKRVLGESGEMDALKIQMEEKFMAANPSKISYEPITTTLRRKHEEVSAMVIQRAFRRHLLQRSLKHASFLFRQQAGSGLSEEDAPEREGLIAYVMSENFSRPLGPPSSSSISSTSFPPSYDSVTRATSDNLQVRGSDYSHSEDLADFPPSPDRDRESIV
Chain of INa-Late (Q14524 whole entry): as above

Compound: COc1ccc(S(=O)(=O)NCc2cc(CN3CCCC3)c(O)c(CN3CCCC3)c2)cc1 [sulcardine, N-[4-hydroxy-3,5-bis(1-pyrrolidinylmethyl)benzyl]-4-methoxybenzenesulfonamide]
- expected half-life for oral administration [1]: about 16 hours

Compound: COc1ccc(S(=O)(=O)NCc2cc(CN3CCCC3)c(O)c(CN3CCCC3)c2)cc1 [HBI-3000, sulcardine sulfate]
- ΔΔHR (healthy subjects [2]; [5]): 1.74 bpm
- ΔΔJTp (healthy subjects [2]; [5]): -2.87 ms
- ΔΔPDur (healthy subjects [2]; [5]): 3.17 ms
- ΔΔPR (healthy subjects [2]; [5]): 5.08 ms
- ΔΔQRS (healthy subjects [2]; [5]): -0.08 ms
- ΔΔQTcF (healthy subjects [2]; [5]): 1.40 ms
- ΔΔTpTe (healthy subjects [2]; [5]): 1.95 ms
- ΔΔHR (healthy subjects [2]; [6]): 2.21 bpm
- ΔΔJTp (healthy subjects [2]; [6]): -5.28 ms
- ΔΔPDur (healthy subjects [2]; [6]): 3.71 ms
- ΔΔPR (healthy subjects [2]; [6]): 6.06 ms
- ΔΔQRS (healthy subjects [2]; [6]): 0.54 ms
- ΔΔQTcF (healthy subjects [2]; [6]): 2.35 ms
- ΔΔTpTe (healthy subjects [2]; [6]): 2.20 ms
- ΔΔHR (healthy subjects [2]; [7]): 4.44 bpm
- ΔΔJTp (healthy subjects [2]; [7]): -15.09 ms
- ΔΔPDur (healthy subjects [2]; [7]): 6.24 ms
- ΔΔPR (healthy subjects [2]; [7]): 10.73 ms
- ΔΔQRS (healthy subjects [2]; [7]): 3.50 ms
- ΔΔQTcF (healthy subjects [2]; [7]): 6.89 ms
- ΔΔTpTe (healthy subjects [2]; [7]): 3.37 ms
- ΔΔHR (healthy subjects [2]; [8]): 7.70 bpm
- ΔΔJTp (healthy subjects [2]; [8]): -24.60 ms
- ΔΔPDur (healthy subjects [2]; [8]): 9.93 ms
- ΔΔPR (healthy subjects [2]; [8]): 17.53 ms
- ΔΔQRS (healthy subjects [2]; [8]): 7.81 ms
- ΔΔQTcF (healthy subjects [2]; [8]): 13.50 ms
- ΔΔTpTe (healthy subjects [2]; [8]): 5.07 ms
- ΔΔHR (healthy subjects [2]; [9]): 12.75 bpm
- ΔΔJTp (healthy subjects [2]; [9]): -28.10 ms
- ΔΔPDur (healthy subjects [2]; [9]): 15.67 ms
- ΔΔPR (healthy subjects [2]; [9]): 28.10 ms
- ΔΔQRS (healthy subjects [2]; [9]): 14.50 ms
- ΔΔQTcF (healthy subjects [2]; [9]): 23.77 ms
- ΔΔTpTe (healthy subjects [2]; [9]): 7.72 ms
- onset and loss of pharmacodynamic effect (healthy subjects [2]; about 400 mg to about 800 mg according to the protocol, human subjects): quickly effective and then quickly loses its effect
- Slope, ΔΔHR (healthy subjects [2]; [10]): 0.0019
- Slope, ΔΔJTp (healthy subjects [2]; [10]): −0.0000
- Slope, ΔΔPDur (healthy subjects [2]; [10]): 0.0022
- Slope, ΔΔPR (healthy subjects [2]; [10]): 0.0040
- Slope, ΔΔQRS (healthy subjects [2]; [10]): 0.0026
- Slope, ΔΔQTcF (healthy subjects [2]; [10]): 0.0039
- Slope, ΔΔTpTe (healthy subjects [2]; [10]): 0.0010
- changes in ECG parameters (healthy subjects [2]; single ascending iv doses 20-600 mg, healthy subjects): dose-proportional changes in all ECG parameters
- AUC(0-t) ([3]; intravenous, 350 mg, read-out: AUC (0-24)): 2880 ng·h/mL
- AUC(0-t) ([3]; intravenous, 350 mg, read-out: AUC (0-last)): 3370 ng·h/mL
- Cmax ([3]; intravenous, 350 mg, read-out: Cmax): 3080 ng/mL
- AUC(0-inf) ([3]; intravenous, 350 mg dose): 3720 ng·h/mL
- half-life ([3]; intravenous, 350 mg dose): 43 h
- Tmax ([3]; intravenous, 350 mg dose, read-out: Tmax): 27 min
- Cmax ([3]; iv, 20 mg, 20 mg single iv infusion over 30 min, N=6, as used for ΔΔECG model, read-out: Cmax (Table 2)): 135 ng/mL
- AUC(0-t) ([3]; iv, 20 mg, 20 mg single iv infusion over 30 min, healthy subjects, N=6, read-out: AUC (0-24)): 89.7 ng·h/mL
- AUC(0-t) ([3]; iv, 20 mg, 20 mg single iv infusion over 30 min, healthy subjects, N=6, read-out: AUC (0-last)): 86.2 ng·h/mL
- Cmax ([3]; iv, 20 mg, 20 mg single iv infusion over 30 min, healthy subjects, N=6, read-out: Cmax): 131 ng/mL
- Cmax ([3]; iv, 60 mg, 60 mg single iv infusion over 30 min, N=6, as used for ΔΔECG model, read-out: Cmax (Table 2)): 378 ng/mL
- AUC(0-t) ([3]; iv, 60 mg, 60 mg single iv infusion over 30 min, healthy subjects, N=6, read-out: AUC (0-24)): 299 ng·h/mL
- AUC(0-t) ([3]; iv, 60 mg, 60 mg single iv infusion over 30 min, healthy subjects, N=6, read-out: AUC (0-last)): 306 ng·h/mL
- Cmax ([3]; iv, 60 mg, 60 mg single iv infusion over 30 min, healthy subjects, N=6, read-out: Cmax): 369 ng/mL
- Cmax ([3]; iv, 180 mg, 180 mg single iv infusion over 30 min, N=6, as used for ΔΔECG model, read-out: Cmax (Table 2)): 1530 ng/mL
- AUC(0-t) ([3]; iv, 180 mg, 180 mg single iv infusion over 30 min, healthy subjects, N=6, read-out: AUC (0-24)): 1270 ng·h/mL
- AUC(0-t) ([3]; iv, 180 mg, 180 mg single iv infusion over 30 min, healthy subjects, N=6, read-out: AUC (0-last)): 1550 ng·h/mL
- Cmax ([3]; iv, 180 mg, 180 mg single iv infusion over 30 min, healthy subjects, N=6, read-out: Cmax): 1430 ng/mL
- Cmax ([3]; iv, 360 mg, 360 mg single iv infusion over 30 min, N=5, as used for ΔΔECG model, read-out: Cmax (Table 2)): 3120 ng/mL
- AUC(0-t) ([3]; iv, 360 mg, 360 mg single iv infusion over 30 min, healthy subjects, N=5, read-out: AUC (0-24)): 2960 ng·h/mL
- AUC(0-t) ([3]; iv, 360 mg, 360 mg single iv infusion over 30 min, healthy subjects, N=5, read-out: AUC (0-last)): 3470 ng·h/mL
- Cmax ([3]; iv, 360 mg, 360 mg single iv infusion over 30 min, healthy subjects, N=5, read-out: Cmax): 3170 ng/mL
- Cmax ([3]; iv, 600 mg, 600 mg single iv infusion over 30 min, N=12, as used for ΔΔECG model, read-out: Cmax (Table 2)): 5280 ng/mL
- AUC(0-t) ([3]; iv, 600 mg, 600 mg single iv infusion over 30 min, healthy subjects, N=12, read-out: AUC (0-24)): 5810 ng·h/mL
- AUC(0-t) ([3]; iv, 600 mg, 600 mg single iv infusion over 30 min, healthy subjects, N=12, read-out: AUC (0-last)): 6640 ng·h/mL
- Cmax ([3]; iv, 600 mg, 600 mg single iv infusion over 30 min, healthy subjects, N=12, read-out: Cmax): 5580 ng/mL
- AUC(0-inf) [3, 11]: 175 ng·h/mL
- half-life [3, 11]: 0.62 h
- Tmax ([3]; 20 mg single iv infusion over 30 min, healthy subjects, N=6, read-out: Tmax Mean): 25.2 min
- AUC(0-inf) [3, 12]: 312 ng·h/mL
- half-life [3, 12]: 9.16 h
- Tmax ([3]; 60 mg single iv infusion over 30 min, healthy subjects, N=6, read-out: Tmax Mean): 22.8 min
- AUC(0-inf) [3, 13]: 2050 ng·h/mL
- half-life [3, 13]: 54.8 h
- Tmax ([3]; 180 mg single iv infusion over 30 min, healthy subjects, N=6, read-out: Tmax Mean): 27.6 min
- AUC(0-inf) [3, 14]: 3830 ng·h/mL
- half-life [3, 14]: 43.7 h
- Tmax ([3]; 360 mg single iv infusion over 30 min, healthy subjects, N=5, read-out: Tmax Mean): 27 min
- AUC(0-inf) [3, 15]: 7580 ng·h/mL
- half-life [3, 15]: 41.1 h
- Tmax ([3]; 600 mg single iv infusion over 30 min, healthy subjects, N=12, read-out: Tmax Mean): 27.6 min
- safety, tolerability (healthy subjects [4]): well tolerated with no dose limiting adverse events or arrhythmias observed
- in vitro inhibitory effects on INa-Peak (INa-Peak): relatively balanced in vitro inhibitory effects
- in vitro inhibitory effects on INa-Late (INa-Late): relatively balanced in vitro inhibitory effects
- in vitro inhibitory effects on ICa,L (ICa,L): relatively balanced in vitro inhibitory effects
- in vitro inhibitory effects on IKr (IKr): relatively balanced in vitro inhibitory effects
